Measured values published in the supplement of paper PMC4977894.
± gives the standard deviation of the averaged measurements.

What was measured:
[1] = test system: Homo sapiens (human subject panel, olfactory perception); experiment: perceived odor intensity rating (rating 0-100); higher = stronger perceived smell
Summary of the method: (§1)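 Fifty-five healthy human subjects aged 18–50 took part, and the six lowest performers were excluded. Each molecule was diluted in paraffin oil at high and low concentrations, and 1 mL was sniffed in randomized order over ten visits of 100 stimuli each. Subjects who reported smelling a stimulus rated it on a computerized slider that started at 50 and had to be moved, with positions converted to a 0–100 scale. The familiarity, intensity and pleasantness values are averages across subjects.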

[2] = test system: Homo sapiens (human subject panel, olfactory perception); experiment: perceived odor pleasantness rating (rating 0-100); higher = more pleasant
Summary of the method: as §1

[3] = test system: Homo sapiens (human subject panel, olfactory perception); experiment: perceived odor familiarity rating (rating 0-100); higher = more familiar
Summary of the method: as §1

[4] = odor dilution in paraffin oil: 1/1,000
[5] = odor dilution in paraffin oil: 1/100,000
[6] = odor dilution in paraffin oil: 1/10
[7] = odor dilution in paraffin oil: 1/10,000,000

| Compound | perceived odor intensity rating [1, 4] | perceived odor intensity rating [1, 5] | perceived odor pleasantness rating [2, 4] | perceived odor pleasantness rating [2, 5] | perceived odor familiarity rating [3, 4] | perceived odor familiarity rating [3, 5] | perceived odor intensity rating [1, 6] | perceived odor pleasantness rating [2, 6] | perceived odor familiarity rating [3, 6] | perceived odor intensity rating [1, 7] | perceived odor pleasantness rating [2, 7] | perceived odor familiarity rating [3, 7] |
| --- | --- | --- | --- | --- | --- | --- | --- | --- | --- | --- | --- | --- |
| C=CCOC(=O)CCCCC [allyl hexanoate] | 57.3 ± 29 | 24.9 ± 27 | 71.8 ± 22 | 49.2 ± 19 | 64.1 ± 27 | 34.4 ± 29 | – | – | – | – | – | – |
| CC(=O)OC(C)(C)Cc1ccccc1 [alpha,alpha-Dimethylphenethyl acetate] | 36.6 ± 30 | – | 52.5 ± 21 | – | 40.3 ± 30 | – | 79 ± 17 | 51.9 ± 31 | 48.8 ± 32 | – | – | – |
| CCCCCC(C=O)=Cc1ccccc1 [alpha-Amylcinnamaldehyde] | 54.4 ± 32 | – | 33.2 ± 26 | – | 36 ± 27 | – | 65.5 ± 29 | 43.5 ± 27 | 45.1 ± 31 | – | – | – |
| CC(O)c1ccccc1 (stereo not drawn) [alpha-Methylbenzyl alcohol] | 48.4 ± 30 | 15.4 ± 16 | 50.4 ± 26 | 44.5 ± 23 | 45 ± 32 | 30.4 ± 30 | – | – | – | – | – | – |
| CC1=CCC2CC1C2(C)C (stereo not drawn) [alpha-pinene] | 61.4 ± 26 | 27.9 ± 30 | 45.6 ± 26 | 54.4 ± 21 | 46.6 ± 31 | 41.4 ± 29 | – | – | – | – | – | – |
| COc1ccccc1 [anisole] | 75.3 ± 24 | 30.9 ± 30 | 29.3 ± 26 | 50.2 ± 26 | 45 ± 34 | 35.4 ± 33 | – | – | – | – | – | – |
| O=Cc1ccccc1 [benzaldehyde] | 77.4 ± 17 | 30.6 ± 29 | 61.5 ± 29 | 64.6 ± 22 | 61.3 ± 27 | 45.3 ± 34 | – | – | – | – | – | – |
| O=C(c1ccccc1)c1ccccc1 [benzophenone] | 24.9 ± 29 | – | 57.5 ± 25 | – | 33.2 ± 28 | – | 67.7 ± 27 | 36.2 ± 24 | 38.6 ± 31 | – | – | – |
| CC(=O)OCc1ccccc1 [benzyl acetate] | 65.8 ± 29 | 36.3 ± 28 | 60.4 ± 25 | 54.7 ± 20 | 52.3 ± 33 | 42.3 ± 27 | – | – | – | – | – | – |
| OCc1ccccc1 [benzyl alcohol] | 45.4 ± 26 | – | 52.4 ± 20 | – | 40.2 ± 25 | – | 74.2 ± 18 | 46.7 ± 25 | 55 ± 29 | – | – | – |
| NCCC(=O)O [beta-Alanine] | 33.9 ± 25 | – | 50.2 ± 26 | – | 40.9 ± 30 | – | 38.4 ± 28 | 50.1 ± 22 | 35.9 ± 30 | – | – | – |
| CC(=O)/C=C/C1=C(C)CCCC1(C)C [beta-Ionone] | 69.7 ± 25 | 50.6 ± 32 | 49.2 ± 27 | 62.6 ± 25 | 52.4 ± 30 | 49.8 ± 31 | – | – | – | – | – | – |
| CCCCO [butanol] | – | 19.8 ± 23 | – | 42.7 ± 25 | – | 35.8 ± 32 | – | – | – | 10.7 ± 19 | 49.7 ± 26 | 27 ± 30 |
| CCCCOC(C)=O [butyl acetate] | 76.5 ± 18 | 31.6 ± 24 | 55.6 ± 27 | 61.1 ± 19 | 67.5 ± 29 | 43.7 ± 31 | – | – | – | – | – | – |
| CCCCOC(=O)CCC [butyl butyrate] | 57.9 ± 27 | 25.5 ± 29 | 38.1 ± 26 | 48 ± 24 | 49.7 ± 28 | 41.3 ± 30 | – | – | – | – | – | – |
| CCCC=O [butyraldehyde] | 83.4 ± 15 | 51.9 ± 28 | 17.7 ± 18 | 32.2 ± 21 | 51.1 ± 29 | 41.8 ± 31 | – | – | – | – | – | – |
| CCCC(=O)O [butyric acid] | 86.8 ± 13 | 76.8 ± 23 | 21.1 ± 27 | 16 ± 18 | 53.1 ± 31 | 50.2 ± 34 | – | – | – | – | – | – |
| CCCCCC(=O)O [caproic acid] | 84.3 ± 15 | 66.5 ± 28 | 14.3 ± 19 | 19.4 ± 19 | 46.7 ± 33 | 45.1 ± 29 | – | – | – | – | – | – |
